From ChEMBL document CHEMBL3992508, “Synthesis and bioactivity investigation of quinone-based dimeric cationic triazolium amphiphiles selective against resistant fungal and bacterial pathogens” (Eur J Med Chem, 2017)
≈ marks a conversion by molar mass, not a printed value. Calls of active or inactive are those of the source. The rule behind the calls is not given here.

What was measured:
[1] = tested on: Pseudomonas aeruginosa; assay: Antibacterial activity against Pseudomonas aeruginosa ATCC 27853; assay type: functional
[2] = tested on: Staphylococcus aureus; assay: Antibacterial activity against methicillin-resistant Staphylococcus aureus ATCC 33591; assay type: functional
[3] = tested on: Escherichia coli; assay: Antibacterial activity against Escherichia coli ATCC 25922; assay type: functional
[4] = tested on: Klebsiella pneumoniae; assay: Antibacterial activity against Klebsiella pneumoniae ATCC 13883; assay type: functional
[5] = tested on: Enterococcus faecalis; assay: Antibacterial activity against vancomycin-resistant Enterococcus faecalis ATCC 51299; assay type: functional
[6] = tested on: Staphylococcus aureus; assay: Antibacterial activity against Staphylococcus aureus ATCC 25923; assay type: functional
[7] = tested on: SK-OV-3; assay: Cytotoxicity against human SKOV3 cells at 10 ug/ml after 48 hrs by MTT assay; assay type: cell-based; details: sk-ov-3, 48 h
[8] = tested on: Rhodotorula mucilaginosa; assay: Antifungal activity against Rhodotorula pilimanae; assay type: functional
[9] = tested on: SK-OV-3; assay: Cytotoxicity against human SKOV3 cells after 48 hrs; assay type: cell-based; details: SK-OV-3, 48 h
[10] = tested on: Candida albicans; assay: Antifungal activity against azole-susceptible Candida albicans MYA2876; assay type: functional
[11] = tested on: Cryptococcus neoformans; assay: Antifungal activity against Cryptococcus neoformans; assay type: functional
[12] = tested on: Candida albicans; assay: Antifungal activity against azole-resistant Candida albicans ATCC 64124; assay type: functional
[13] = tested on: Aspergillus flavus; assay: Antifungal activity against Aspergillus flavus; assay type: functional
[14] = tested on: Staphylococcus aureus; assay: Antibacterial activity against Staphylococcus aureus ATCC 25923 at 5 mg/ml; assay type: functional
[15] = tested on: Klebsiella pneumoniae; assay: Antibacterial activity against Klebsiella pneumoniae ATCC 13883 at 5 mg/ml; assay type: functional
[16] = tested on: Escherichia coli; assay: Antibacterial activity against Escherichia coli ATCC 25922 at 5 mg/ml; assay type: functional
[17] = tested on: Staphylococcus aureus; assay: Antibacterial activity against methicillin-resistant Staphylococcus aureus ATCC 33591 at 5 mg/ml; assay type: functional
[18] = tested on: Pseudomonas aeruginosa; assay: Antibacterial activity against Pseudomonas aeruginosa ATCC 27853 at 5 mg/ml; assay type: functional
[19] = tested on: Enterococcus faecalis; assay: Antibacterial activity against vancomycin-resistant Enterococcus faecalis ATCC 51299 at 5 mg/ml; assay type: functional
[20] = tested on: Candida albicans; assay: Antifungal activity against Candida albicans ATCC 64124 assessed as cell membrane disruption at MIC after 1 hr by Sytox Green dye based fluorescence assay; assay type: functional
[21] = tested on: Fusarium graminearum; assay: Antifungal activity against Fusarium graminearum B4-A5 assessed as cell membrane disruption at MIC after 1 hr by Sytox Green dye based fluorescence assay; assay type: functional

## NCC[C@H](O)C(=O)N[C@@H]1C[C@H](N)[C@@H](O[C@H]2O[C@H](CN)[C@@H](O)[C@H](O)[C@H]2O)[C@H](O)[C@H]1O[C@H]1O[C@H](CO)[C@@H](O)[C@H](N)[C@H]1O [AMIKACIN]
[1]
  MIC: 1 µg/mL (≈ 1.71 µM)
[2]
  MIC: 16 µg/mL (≈ 27.3 µM)
[3]
  MIC: 1 µg/mL (≈ 1.71 µM)
[4]
  MIC: 1 µg/mL (≈ 1.71 µM)
[5]
  MIC: > 250 µg/mL
[6]
  MIC: 0.5 µg/mL (≈ 0.854 µM)

## CCCCCC[n+]1nn(CCCCCCn2n[n+](CCCCCC)c3c2C(=O)c2ccccc2C3=O)c2c1C(=O)c1ccccc1C2=O.O=S(=O)([O-])C(F)(F)F.O=S(=O)([O-])C(F)(F)F
[7]
  Activity: Non-Toxic
[1]
  MIC: 16 µg/mL
[8]
  MIC: 15.6 µg/mL
[9]
  IC50: 109 µg/mL
[10]
  MIC: > 250 µg/mL
[11]
  MIC: 125 µg/mL
[2]
  MIC: 8 to 16 µg/mL
[3]
  MIC: 8 to 16 µg/mL
[12]
  MIC: 250 µg/mL
[4]
  MIC: 250 µg/mL
[5]
  MIC: 4 µg/mL
[6]
  MIC: 4 µg/mL
[13]
  MIC: > 250 µg/mL

## CCCCCCCC[n+]1nn(CCCCCCn2n[n+](CCCCCCCC)c3c2C(=O)c2ccccc2C3=O)c2c1C(=O)c1ccccc1C2=O.O=S(=O)([O-])C(F)(F)F.O=S(=O)([O-])C(F)(F)F
[7]
  Activity: Non-Toxic
[1]
  MIC: 4 µg/mL
[8]
  MIC: 2 µg/mL
[9]
  IC50: 74 µg/mL
[10]
  MIC: 3.91 µg/mL
[11]
  MIC: 3.9 µg/mL
[2]
  MIC: 4 to 8 µg/mL
[3]
  MIC: 2 to 4 µg/mL
[12]
  MIC: 3.91 µg/mL
[4]
  MIC: 16 µg/mL
[5]
  MIC: 1 µg/mL
[6]
  MIC: 4 µg/mL
[13]
  MIC: 15.6 µg/mL

## C[n+]1nn(CCCCCCn2n[n+](C)c3c2C(=O)c2ccccc2C3=O)c2c1C(=O)c1ccccc1C2=O.O=S(=O)([O-])C(F)(F)F.O=S(=O)([O-])C(F)(F)F
[7]
  Activity: Toxic
[1]
  MIC: 250 µg/mL
[8]
  MIC: 62.5 µg/mL
[9]
  IC50: 46.1 µg/mL
[10]
  MIC: > 250 µg/mL
[11]
  MIC: 125 µg/mL
[2]
  MIC: > 250 µg/mL
[3]
  MIC: > 250 µg/mL
[12]
  MIC: > 250 µg/mL
[4]
  MIC: 250 µg/mL
[5]
  MIC: 16 µg/mL
[6]
  MIC: 0.125 µg/mL
[13]
  MIC: > 250 µg/mL

## CCCC[n+]1nn(CCCCCCn2n[n+](CCCC)c3c2C(=O)c2ccccc2C3=O)c2c1C(=O)c1ccccc1C2=O.O=S(=O)([O-])C(F)(F)F.O=S(=O)([O-])C(F)(F)F
[7]
  Activity: Non-Toxic
[1]
  MIC: 32 µg/mL
[9]
  IC50: 115 µg/mL
[10]
  MIC: > 250 µg/mL
[2]
  MIC: > 250 µg/mL
[3]
  MIC: > 250 µg/mL
[12]
  MIC: 250 µg/mL
[4]
  MIC: 250 µg/mL
[5]
  MIC: 16 µg/mL
[6]
  MIC: 0.125 µg/mL
[13]
  MIC: > 250 µg/mL

## NC[C@H]1O[C@H](O[C@H]2[C@H](O)[C@@H](O[C@H]3O[C@H](CO)[C@@H](O)[C@H](N)[C@H]3O)[C@H](N)C[C@@H]2N)[C@H](O)[C@@H](O)[C@@H]1O [KANAMYCIN]
[1]
  MIC: 125 µg/mL (≈ 258 µM)
[2]
  MIC: 125 to 250 µg/mL (≈ 258 to 516 µM)
[3]
  MIC: 4 µg/mL (≈ 8.26 µM)
[4]
  MIC: 1 µg/mL (≈ 2.06 µM)
[5]
  MIC: 250 µg/mL (≈ 516 µM)
[6]
  MIC: 2 to 4 µg/mL (≈ 4.13 to 8.26 µM)

## CC[n+]1nn(CCCCCCn2n[n+](CC)c3c2C(=O)c2ccccc2C3=O)c2c1C(=O)c1ccccc1C2=O.O=S(=O)([O-])C(F)(F)F.O=S(=O)([O-])C(F)(F)F
[1]
  MIC: 250 µg/mL
[10]
  MIC: > 250 µg/mL
[2]
  MIC: > 250 µg/mL
[3]
  MIC: > 250 µg/mL
[12]
  MIC: > 250 µg/mL
[4]
  MIC: 250 µg/mL
[5]
  MIC: 32 µg/mL
[6]
  MIC: 0.125 µg/mL
[13]
  MIC: > 250 µg/mL

## CCCCCCCCS(=O)(=O)OC[C@H]1O[C@H](O[C@@H]2[C@@H](O)[C@H](O[C@H]3O[C@H](CN)[C@@H](O)[C@H](O)[C@H]3O)[C@@H](N)C[C@H]2N)[C@H](O)[C@@H](N)[C@@H]1O.Cl.Cl.Cl.Cl
[10]
  MIC: 15.6 µg/mL
[11]
  MIC: 7.8 µg/mL
[12]
  MIC: 31.3 µg/mL
[13]
  MIC: > 250 µg/mL

## CN[C@H](CC(C)C)C(=O)N[C@H]1C(=O)N[C@@H](CC(N)=O)C(=O)N[C@H]2C(=O)N[C@H]3C(=O)N[C@H](C(=O)N[C@H](C(=O)O)c4cc(O)cc(O)c4-c4cc3ccc4O)[C@H](O)c3ccc(c(Cl)c3)Oc3cc2cc(c3O[C@@H]2O[C@H](CO)[C@@H](O)[C@H](O)[C@H]2O[C@H]2C[C@](C)(N)[C@H](O)[C@H](C)O2)Oc2ccc(cc2Cl)[C@H]1O [VANCOMYCIN]
[1]
  MIC: > 250 µg/mL
[2]
  MIC: 2 to 4 µg/mL (≈ 1.38 to 2.76 µM)
[3]
  MIC: 64 to 125 µg/mL (≈ 44.2 to 86.3 µM)
[4]
  MIC: > 250 µg/mL
[5]
  MIC: 125 µg/mL (≈ 86.3 µM)

## O=C1c2ccccc2C(=O)c2c1nnn2CCCCCCn1nnc2c1C(=O)c1ccccc1C2=O
[14]
  Activity: inactive
[15]
  Activity: inactive
[16]
  Activity: inactive
[17]
  Activity: inactive
[18]
  Activity: inactive
[19]
  Activity: inactive

## CCCCCCCCCC[n+]1nn(CCCCCCn2n[n+](CCCCCCCCCC)c3c2C(=O)c2ccccc2C3=O)c2c1C(=O)c1ccccc1C2=O.O=S(=O)([O-])C(F)(F)F.O=S(=O)([O-])C(F)(F)F
[7]
  Activity: Non-Toxic
[1]
  MIC: 4 µg/mL
[8]
  MIC: 2 µg/mL
[9]
  IC50: 68.4 µg/mL
[20]
  Activity: Active
[10]
  MIC: 3.91 µg/mL
[11]
  MIC: 2 µg/mL
[21]
  Activity: Active
[2]
  MIC: 4 to 8 µg/mL
[3]
  MIC: 4 to 8 µg/mL
[12]
  MIC: 3.91 µg/mL
[4]
  MIC: 32 µg/mL
[5]
  MIC: 1 µg/mL
[6]
  MIC: 8 µg/mL
[13]
  MIC: 7.81 µg/mL

## OC(Cn1cncn1)(Cn1cncn1)c1ccc(F)cc1F [FLUCONAZOLE]
[10]
  MIC: 1.56 µg/mL (≈ 5.09 µM)
[12]
  MIC: > 250 µg/mL
